Assay results: patent US11479802B2, “Assays for screening activity of modulators of members of the hydroxy steroid (17-beta) dehydrogenase (HSD17B) family” (Regeneron Pharmaceuticals, Inc., priority 2017, dated 2022)

Target: T1, human HSD17B13 (Homo sapiens, UniProt Q7Z5P4)
T1 sequence (Q7Z5P4 20-300): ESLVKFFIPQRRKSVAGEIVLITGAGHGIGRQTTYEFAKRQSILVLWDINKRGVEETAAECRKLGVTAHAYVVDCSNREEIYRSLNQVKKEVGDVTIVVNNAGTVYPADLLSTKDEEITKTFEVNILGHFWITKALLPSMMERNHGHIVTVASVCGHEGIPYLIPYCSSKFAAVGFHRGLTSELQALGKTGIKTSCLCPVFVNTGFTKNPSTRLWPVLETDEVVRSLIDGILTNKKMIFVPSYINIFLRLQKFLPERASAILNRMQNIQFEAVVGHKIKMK
Experiment: Substrate screening of steroid and bioactive lipid libraries against purified recombinant HSD17B13 (NADH-linked luciferase assay)
Format: biochemical
Settings: for HSD17B13 Enzymatic Activity Relative Light Units: 500 μM NAD+, 100 ng enzyme, 3 hours at 23° C.; for HSD17B13 Enzymatic Activity Percent Estradiol Control: normalized to 50 μM estradiol after subtraction of 5% DMSO
How it was run: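 Recombinant human HSD17B13 (100 ng) incubated 3 h at 23° C in 0.2 M Tris-HCl pH 7.5 with 500 μM NAD+ and 5 μM bioactive lipid or 50 μM steroid (5% DMSO). NADH measured by luciferase luminescence after 1 h; values as percent of 50 μM estradiol control after 5% DMSO subtraction.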

[1] = Bioactive Lipid Library, 5 μM bioactive lipid (Estradiol Control 50 μM)
[2] = Bioactive Lipid Library, 5 μM bioactive lipid

CC(=O)S[C@@H]1CC2=CC(=O)CC[C@]2(C)[C@H]2CC[C@@]3(C)[C@@H](CC[C@@]34CCC(=O)O4)[C@H]12 [Spironolactone]
HSD17B13 Enzymatic Activity Relative Light Units (Steroid Library, 50 μM steroid): 184280 RLU
HSD17B13 Enzymatic Activity Percent Estradiol Control (Steroid Library, 50 μM steroid): 0.41%

C[C@]12Cc3c[nH]nc3C[C@@H]1CC[C@@H]1[C@@H]2CC[C@@]2(C)[C@H]1CC[C@]2(C)O [Stanazol]
HSD17B13 Enzymatic Activity Relative Light Units (Steroid Library, 50 μM steroid): 140840 RLU
HSD17B13 Enzymatic Activity Percent Estradiol Control (Steroid Library, 50 μM steroid): −0.35%

C[C@@H]1C[C@@]2(C)[C@@H](CC[C@@H]3[C@@H]2CC[C@@]2(C)[C@H]3CC[C@]2(C)O)CC1=O [Superdrol]
HSD17B13 Enzymatic Activity Relative Light Units (Steroid Library, 50 μM steroid): 105920 RLU
HSD17B13 Enzymatic Activity Percent Estradiol Control (Steroid Library, 50 μM steroid): −0.95%

CC/C=C\C[C@H](O)/C=C/[C@H]1OC(O)C[C@H](O)[C@@H]1C/C=C\CCCC(=O)O (stereo partly shown) [Thromboxane B3]
HSD17B13 Enzymatic Activity Relative Light Units [1]: 348080 RLU
HSD17B13 Enzymatic Activity Percent Estradiol Control [2]: 5.14%

CCCCC/C=C\C[C@@H](O)/C=C/c1cccc(C[C@@H](O)CCCCO)n1 [U-75302]
HSD17B13 Enzymatic Activity Relative Light Units [1]: 425520 RLU
HSD17B13 Enzymatic Activity Percent Estradiol Control [2]: 7.59%

CCCCC/C=C\C[C@@H](O)/C=C/C=C\CCC(=O)O [tetranor-12(R)-HETE]
HSD17B13 Enzymatic Activity Relative Light Units [1]: 708640 RLU
HSD17B13 Enzymatic Activity Percent Estradiol Control [2]: 31.37%

CCCCC/C=C\C[C@H](O)/C=C/C=C\CCC(=O)O [tetranor-12(S)-HETE]
HSD17B13 Enzymatic Activity Relative Light Units [1]: 379280 RLU
HSD17B13 Enzymatic Activity Percent Estradiol Control [2]: 4.10%

[2H]C([2H])(CC(=O)CC[C@H]1C(=O)C[C@H](O)[C@@H]1CCC(=O)O)C([2H])([2H])C([2H])([2H])C(=O)O [tetranor-PGDM-d6]
HSD17B13 Enzymatic Activity Relative Light Units [1]: 375520 RLU
HSD17B13 Enzymatic Activity Percent Estradiol Control [2]: 3.81%

O=C(O)CCCCC(=O)CC[C@H]1[C@H](O)CC(=O)[C@@H]1CCC(=O)O [tetranor-PGEM]
HSD17B13 Enzymatic Activity Relative Light Units [1]: 348440 RLU
HSD17B13 Enzymatic Activity Percent Estradiol Control [2]: 5.17%

O=C(O)CCCCC(=O)CC[C@@H]1[C@@H](CCC(=O)O)[C@@H](O)C[C@H]1O [tetranor-PGFM]
HSD17B13 Enzymatic Activity Relative Light Units [1]: 367640 RLU
HSD17B13 Enzymatic Activity Percent Estradiol Control [2]: 6.68%

CCCCC[C@H](O)C/C=C1/C(=O)C=C[C@@H]1C/C=C\CCCC(=O)O [Δ12-Prostaglandin J2]
HSD17B13 Enzymatic Activity Relative Light Units [1]: 343320 RLU
HSD17B13 Enzymatic Activity Percent Estradiol Control [2]: 4.76%

CC/C=C\C[C@H](O)/C=C/[C@@H]1[C@@H](CC(=O)CCCCC(=O)O)[C@@H](O)C[C@H]1O [Δ17-6-keto Prostaglandin F1α]
HSD17B13 Enzymatic Activity Relative Light Units [1]: 286120 RLU
HSD17B13 Enzymatic Activity Percent Estradiol Control [2]: 0.24%

(±)11(12)-EET
HSD17B13 Enzymatic Activity Relative Light Units [1]: 306600 RLU
HSD17B13 Enzymatic Activity Percent Estradiol Control [2]: 1.47%

Androstanolone acetate
HSD17B13 Enzymatic Activity Relative Light Units (Steroid Library, 50 μM steroid): 200560 RLU
HSD17B13 Enzymatic Activity Percent Estradiol Control (Steroid Library, 50 μM steroid): 0.70%

Cholesteryl Linoleate Hydroperoxides
HSD17B13 Enzymatic Activity Relative Light Units [1]: 256120 RLU
HSD17B13 Enzymatic Activity Percent Estradiol Control [2]: −2.28%

D-myo-Inositol-1,2,3,4-tetraphosphate (sodium salt)
HSD17B13 Enzymatic Activity Relative Light Units [1]: 447960 RLU
HSD17B13 Enzymatic Activity Percent Estradiol Control [2]: 9.28%

Epiandrosterone acetate
HSD17B13 Enzymatic Activity Relative Light Units (Steroid Library, 50 μM steroid): 210960 RLU
HSD17B13 Enzymatic Activity Percent Estradiol Control (Steroid Library, 50 μM steroid): 0.88%

Prostaglandin D2-biotin
HSD17B13 Enzymatic Activity Relative Light Units [1]: 367880 RLU
HSD17B13 Enzymatic Activity Percent Estradiol Control [2]: 3.24%

Ptdlns-(3)-P1 (1,2-dioctanoyl) (sodium salt)
HSD17B13 Enzymatic Activity Relative Light Units [1]: 319680 RLU
HSD17B13 Enzymatic Activity Percent Estradiol Control [2]: −0.40%

Ptdlns-(3)-P1 (1,2-dipalmitoyl) (ammonium salt)
HSD17B13 Enzymatic Activity Relative Light Units [1]: 15520 RLU
HSD17B13 Enzymatic Activity Percent Estradiol Control [2]: −23.38%

Ptdlns-(3,4)-P2 (1,2-dipalmitoyl) (sodium salt)
HSD17B13 Enzymatic Activity Relative Light Units [1]: 351680 RLU
HSD17B13 Enzymatic Activity Percent Estradiol Control [2]: 2.01%

Ptdlns-(3,4,5)-P3 (1,2-dipalmitoyl) (sodium salt)
HSD17B13 Enzymatic Activity Relative Light Units [1]: 334600 RLU
HSD17B13 Enzymatic Activity Percent Estradiol Control [2]: 0.72%

Ptdlns-(4)-P1 (1,2-dipalmitoyl) (ammonium salt)
HSD17B13 Enzymatic Activity Relative Light Units [1]: 123240 RLU
HSD17B13 Enzymatic Activity Percent Estradiol Control [2]: −15.24%

Ptdlns-(4,5)-P2 (1,2-dioctanoyl) (sodium salt)
HSD17B13 Enzymatic Activity Relative Light Units [1]: 348680 RLU
HSD17B13 Enzymatic Activity Percent Estradiol Control [2]: 1.79%

Ptdlns-(4,5)-P2 (1,2-dipalmitoyl) (ammonium salt)
HSD17B13 Enzymatic Activity Relative Light Units [1]: 24120 RLU
HSD17B13 Enzymatic Activity Percent Estradiol Control [2]: −22.73%

Ptdlns-(5)-P1 (1,2-dipalmitoyl) (ammonium salt)
HSD17B13 Enzymatic Activity Relative Light Units [1]: 19160 RLU
HSD17B13 Enzymatic Activity Percent Estradiol Control [2]: −23.10%
